From ChEMBL document CHEMBL3352319, “Identification and pharmacological characterization of 3,6-diazabicyclo[3.1.1]heptane-3-carboxamides as novel ligands for the α4β2 and α6/α3β2β3 nicotinic acetylcholine receptors (nAChRs)” (Eur J Med Chem, 2014)

Experiments:
[1] = biological target: T1, Neuronal acetylcholine receptor; alpha4/beta2 (Homo sapiens, UniProt P17787+P43681); assay: Agonist activity at human alpha4beta2 nAChR low sensitivity isoform transfected in SH-EP1 cells assessed as calcium flux by FLIPR assay relative to control; assay type: cell-based
[2] = biological target: T1, Neuronal acetylcholine receptor; alpha4/beta2; assay: Agonist activity at human alpha4beta2 nAChR low sensitivity isoform transfected in SH-EP1 cells assessed as calcium flux by FLIPR assay; assay type: cell-based
[3] = biological target: T2, Neuronal acetylcholine receptor; alpha3/alpha6/beta2/beta3 (Homo sapiens, UniProt P17787+P32297+Q05901+Q15825); assay: Agonist activity at human alpha6/alpha3beta2beta3 nAChR transfected in CHO cells assessed as calcium flux by FLIPR assay; assay type: cell-based
[4] = biological target: T1, Neuronal acetylcholine receptor; alpha4/beta2; assay: Agonist activity at human alpha4beta2 nAChR high sensitivity isoform transfected in SH-EP1 cells assessed as calcium flux by FLIPR assay relative to control; assay type: cell-based
[5] = biological target: Neuronal acetylcholine receptor; alpha3/alpha6/beta2/beta3 (Homo sapiens) (UniProt P17787+P32297+Q15825+Q05901); assay: Agonist activity at human alpha6/alpha3beta2beta3 nAChR transfected in CHO cells assessed as calcium flux by FLIPR assay relative to control; assay type: cell-based
[6] = biological target: T1, Neuronal acetylcholine receptor; alpha4/beta2; assay: Displacement of [3H] nicotine from human alpha4beta2 nAChR transfected in SH-EP1 cells by liquid scintillation counting; assay type: cell-based
[7] = biological target: T2, Neuronal acetylcholine receptor; alpha3/alpha6/beta2/beta3; assay: Displacement of [3H]epibatidine from human alpha6/alpha3beta2beta3 nAChR transfected in CHO cells by liquid scintillation counting; assay type: cell-based
[8] = biological target: T1, Neuronal acetylcholine receptor; alpha4/beta2; assay: Agonist activity at human alpha4beta2 nAChR transfected in SH-EP1 cells assessed as calcium flux by FLIPR assay; assay type: cell-based
[9] = Drug uptake in po dosed rat plasma after 4 hrs by LC-MS/MS analysis; assay type: ADME, organism-based
[10] = Tmax in po dosed rat; assay type: ADME, organism-based; settings: in vivo
[11] = Drug uptake in po dosed rat plasma after 0.5 hrs by LC-MS/MS analysis; assay type: ADME, organism-based
[12] = Drug uptake in po dosed rat brain after 1 hrs by LC-MS/MS analysis; assay type: ADME, organism-based; settings: read-out: Drug uptake
[13] = Half life in po dosed rat; assay type: ADME, organism-based; settings: in vivo
[14] = Ratio of drug level in po dosed rat brain to plasma after 4 hrs by LC-MS/MS analysis; assay type: ADME, organism-based; settings: read-out: BPR
[15] = Drug uptake in po dosed rat brain after 4 hrs by LC-MS/MS analysis; assay type: ADME, organism-based; settings: read-out: Drug uptake
Rattus norvegicus = organism: Rattus norvegicus; assay: Inhibition of L-dopa-induced abnormal involuntary movement in rat; assay type: functional
[16] = Drug uptake in po dosed rat brain after 0.5 hrs by LC-MS/MS analysis; assay type: ADME, organism-based; settings: read-out: Drug uptake
[17] = Ratio of drug level in po dosed rat brain to plasma after 1 hrs by LC-MS/MS analysis; assay type: ADME, organism-based; settings: read-out: BPR
[18] = Ratio of drug level in po dosed rat brain to plasma after 0.5 hrs by LC-MS/MS analysis; assay type: ADME, organism-based; settings: read-out: BPR
[19] = Drug uptake in po dosed rat plasma after 1 hrs by LC-MS/MS analysis; assay type: ADME, organism-based
[20] = Oral bioavailability in rat; assay type: ADME, organism-based; settings: in vivo
[21] = Cmax in po dosed rat; assay type: ADME, organism-based; parameters: route oral; settings: in vivo

T1 sequence (P17787 whole entry, canonical isoform): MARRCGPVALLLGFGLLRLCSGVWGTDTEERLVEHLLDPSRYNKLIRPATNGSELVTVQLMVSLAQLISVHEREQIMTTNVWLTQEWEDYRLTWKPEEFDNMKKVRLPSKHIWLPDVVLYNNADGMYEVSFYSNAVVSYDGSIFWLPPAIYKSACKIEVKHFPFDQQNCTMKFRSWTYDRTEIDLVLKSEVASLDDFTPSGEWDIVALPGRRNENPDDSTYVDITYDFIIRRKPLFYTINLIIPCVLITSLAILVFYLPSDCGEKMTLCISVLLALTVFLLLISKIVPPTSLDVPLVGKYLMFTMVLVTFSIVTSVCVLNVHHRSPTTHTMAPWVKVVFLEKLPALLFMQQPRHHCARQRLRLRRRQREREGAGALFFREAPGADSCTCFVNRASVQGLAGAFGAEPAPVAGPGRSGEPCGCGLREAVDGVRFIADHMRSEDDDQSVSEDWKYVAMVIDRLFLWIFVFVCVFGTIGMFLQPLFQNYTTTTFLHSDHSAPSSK
T1 sequence (P43681 whole entry, canonical isoform): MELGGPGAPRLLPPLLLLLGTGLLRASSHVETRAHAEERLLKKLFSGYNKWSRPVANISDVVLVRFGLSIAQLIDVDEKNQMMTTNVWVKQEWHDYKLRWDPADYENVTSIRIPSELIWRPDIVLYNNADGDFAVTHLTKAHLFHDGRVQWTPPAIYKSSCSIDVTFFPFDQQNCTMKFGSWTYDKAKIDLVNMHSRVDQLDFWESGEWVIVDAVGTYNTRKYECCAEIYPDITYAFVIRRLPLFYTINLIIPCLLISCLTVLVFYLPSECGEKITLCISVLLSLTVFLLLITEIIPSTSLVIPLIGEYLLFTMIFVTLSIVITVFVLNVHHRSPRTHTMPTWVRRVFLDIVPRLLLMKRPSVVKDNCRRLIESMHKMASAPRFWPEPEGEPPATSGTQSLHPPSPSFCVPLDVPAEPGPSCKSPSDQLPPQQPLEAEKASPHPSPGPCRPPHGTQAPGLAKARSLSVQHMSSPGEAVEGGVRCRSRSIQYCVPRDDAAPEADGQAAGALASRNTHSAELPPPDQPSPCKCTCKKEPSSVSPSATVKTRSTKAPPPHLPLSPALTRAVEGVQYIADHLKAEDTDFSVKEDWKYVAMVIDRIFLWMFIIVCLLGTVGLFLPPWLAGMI
T2 sequence (P17787 whole entry, canonical isoform): as the sequence (P17787 whole entry, canonical isoform) above
T2 sequence (P32297 whole entry, canonical isoform): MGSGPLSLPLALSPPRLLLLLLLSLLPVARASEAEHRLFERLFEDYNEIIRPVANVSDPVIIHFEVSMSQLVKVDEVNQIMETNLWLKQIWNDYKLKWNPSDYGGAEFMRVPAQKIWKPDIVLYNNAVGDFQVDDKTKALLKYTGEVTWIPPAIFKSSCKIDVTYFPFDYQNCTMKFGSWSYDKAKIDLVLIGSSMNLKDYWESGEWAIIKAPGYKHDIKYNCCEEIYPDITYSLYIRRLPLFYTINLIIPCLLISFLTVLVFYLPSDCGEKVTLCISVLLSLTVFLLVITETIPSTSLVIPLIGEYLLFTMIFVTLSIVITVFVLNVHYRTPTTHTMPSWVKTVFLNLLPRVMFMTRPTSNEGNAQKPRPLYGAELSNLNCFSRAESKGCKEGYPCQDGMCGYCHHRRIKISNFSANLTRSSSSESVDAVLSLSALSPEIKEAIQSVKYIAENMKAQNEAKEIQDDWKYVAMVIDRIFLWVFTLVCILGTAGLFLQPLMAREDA
T2 sequence (Q15825 whole entry, canonical isoform): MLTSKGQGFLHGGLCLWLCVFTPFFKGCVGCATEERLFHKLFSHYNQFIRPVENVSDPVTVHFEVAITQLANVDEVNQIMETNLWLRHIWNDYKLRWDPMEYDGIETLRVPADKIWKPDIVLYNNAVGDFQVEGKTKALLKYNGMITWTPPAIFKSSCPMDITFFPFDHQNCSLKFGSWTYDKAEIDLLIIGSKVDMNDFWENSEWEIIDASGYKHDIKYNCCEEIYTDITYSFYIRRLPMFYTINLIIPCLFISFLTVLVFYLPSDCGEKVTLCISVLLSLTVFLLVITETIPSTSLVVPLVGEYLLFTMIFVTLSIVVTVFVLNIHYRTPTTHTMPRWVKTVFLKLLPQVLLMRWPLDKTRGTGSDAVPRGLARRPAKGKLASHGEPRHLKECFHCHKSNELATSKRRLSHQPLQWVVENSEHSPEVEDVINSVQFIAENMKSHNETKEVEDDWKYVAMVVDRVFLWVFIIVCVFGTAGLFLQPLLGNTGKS
T2 sequence (Q05901 whole entry, canonical isoform): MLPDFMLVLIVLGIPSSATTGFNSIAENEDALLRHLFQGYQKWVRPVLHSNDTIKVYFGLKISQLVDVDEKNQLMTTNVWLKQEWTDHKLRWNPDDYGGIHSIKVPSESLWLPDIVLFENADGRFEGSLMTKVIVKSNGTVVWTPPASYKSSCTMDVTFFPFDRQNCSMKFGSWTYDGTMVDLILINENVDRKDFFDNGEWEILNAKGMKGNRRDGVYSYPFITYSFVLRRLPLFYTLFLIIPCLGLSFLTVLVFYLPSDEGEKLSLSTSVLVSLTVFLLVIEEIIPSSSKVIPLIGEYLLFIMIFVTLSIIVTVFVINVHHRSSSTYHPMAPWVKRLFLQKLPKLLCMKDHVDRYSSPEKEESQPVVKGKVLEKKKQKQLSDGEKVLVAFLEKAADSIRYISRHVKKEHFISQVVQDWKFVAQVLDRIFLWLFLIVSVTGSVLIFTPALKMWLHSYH

Structure (SMILES): O=C(C1CCCC1)N1CC2CC(C1)N2
- Emax [1]: 48%
- EC50 [2]: 29000 nM
- EC50 [3]: 1600 nM
- Emax [4]: 68%
- Emax [5]: 62%
- Ki [6]: 160 nM
- Ki [7]: 2900 nM
- EC50 [8]: 11000 nM

Structure (SMILES): O=C([C@@H]1C[C@H]1F)N1CC2CC(C1)N2
- Emax [1]: 110%
- EC50 [2]: 870 nM
- EC50 [3]: 53 nM
- Emax [4]: 110%
- Emax [5]: 130%
- Ki [7]: 43 nM
- EC50 [8]: 120 nM

Structure (SMILES): O=C(C1CC1)N1CC2CC1CN2 (configuration not stated)
- Ki [6]: 2800 nM
- Ki [7]: 10000 nM

Structure (SMILES): C[C@H]1C[C@@H]1C(=O)N1CC2CC(C1)N2
- Emax [1]: 67%
- EC50 [2]: 14000 nM
- EC50 [3]: 3800 nM
- Emax [4]: 85%
- Emax [5]: 64%
- Ki [6]: 17 nM
- Ki [7]: 310 nM
- EC50 [8]: 9100 nM

Structure (SMILES): O=C(C1CC1)N1CC2CCC(C1)N2
- Ki [6]: 320 nM
- Ki [7]: 7200 nM

Structure (SMILES): CCCC(=O)N1CC2CC(C1)N2
- Emax [1]: 120%
- EC50 [2]: 850 nM
- EC50 [3]: 300 nM
- Emax [4]: 110%
- Emax [5]: 92%
- Ki [6]: 14 nM
- Ki [7]: 350 nM
- EC50 [8]: 580 nM

Structure (SMILES): C[C@@H]1C[C@@H]1C(=O)N1CC2CC(C1)N2
- Emax [1]: 88%
- EC50 [2]: 3800 nM
- EC50 [3]: 920 nM
- Emax [4]: 97%
- Emax [5]: 87%
- Ki [7]: 92 nM
- EC50 [8]: 2100 nM

Structure (SMILES): O=C(C1CCC1)N1CC2CC(C1)N2
- Emax [1]: 100%
- EC50 [2]: 11000 nM
- EC50 [3]: 370 nM
- Emax [4]: 99%
- Emax [5]: 80%
- Ki [6]: 16 nM
- Ki [7]: 240 nM
- EC50 [8]: 2900 nM

Structure (SMILES): CC(=O)N1CC2CC(C1)N2
- Emax [1]: 94%
- EC50 [2]: 9700 nM
- EC50 [3]: 750 nM
- Emax [4]: 95%
- Emax [5]: 100%
- Ki [6]: 150 nM
- Ki [7]: 610 nM
- EC50 [8]: 5100 nM

Structure (SMILES): C[C@@H]1C[C@H]1C(=O)N1CC2CC(C1)N2
- Emax [1]: 110%
- EC50 [2]: 2900 nM
- EC50 [3]: 51 nM
- Emax [4]: 110%
- Emax [5]: 110%
- Ki [7]: 14 nM
- EC50 [8]: 190 nM

Structure (SMILES): O=C([C@H]1C[C@H]1F)N1CC2CC(C1)N2
- Emax [1]: 110%
- EC50 [2]: 1500 nM
- EC50 [3]: 62 nM
- Emax [4]: 110%
- Emax [5]: 130%
- Ki [7]: 27 nM
- EC50 [8]: 210 nM

Structure (SMILES): O=C([C@H]1C[C@@H]1F)N1CC2CC(C1)N2
- Emax [1]: 100%
- EC50 [2]: 2800 nM
- EC50 [3]: 620 nM
- Emax [4]: 100%
- Emax [5]: 85%
- Ki [6]: 5.4 nM
- Ki [7]: 490 nM
- EC50 [8]: 850 nM

Structure (SMILES): CC1(C)CC1C(=O)N1CC2CC(C1)N2 (configuration not stated)
- Emax [1]: 96%
- EC50 [2]: 5700 nM
- EC50 [3]: 540 nM
- Emax [4]: 92%
- Emax [5]: 73%
- Ki [6]: 3.9 nM
- Ki [7]: 250 nM
- EC50 [8]: 2200 nM

Structure (SMILES): O=C([C@@H]1C[C@@H]1F)N1CC2CC(C1)N2
- Emax [1]: 120%
- EC50 [2]: 370 nM
- EC50 [3]: 88 nM
- Emax [4]: 110%
- Emax [5]: 120%
- Ki [6]: 1.7 nM
- Ki [7]: 55 nM
- EC50 [8]: 120 nM

Structure (SMILES): O=C(CC1C=CCC1)N1CC2CC(C1)N2 (configuration not stated)
- Emax [1]: 89%
- EC50 [2]: 37000 nM
- EC50 [3]: 21000 nM
- Emax [4]: 94%
- Emax [5]: 47%
- Ki [6]: 53 nM
- Ki [7]: 2500 nM
- EC50 [8]: 14000 nM

Structure (SMILES): CCC(=O)N1CC2CC(C1)N2
- Emax [1]: 98%
- EC50 [2]: 5900 nM
- EC50 [3]: 180 nM
- Emax [4]: 110%
- Emax [5]: 120%
- Ki [6]: 6 nM
- Ki [7]: 190 nM
- EC50 [8]: 490 nM

Structure (SMILES): O=C(C1CC1)N1CC2CC(C1)N2
- concentration at 4 h [9]: 62.2 ng/mL
- Emax [1]: 110%
- EC50 [2]: 850 nM
- Tmax [10]: 1 h
- concentration at 0.5 h [11]: 123 ng/mL
- EC50 [3]: 80 nM
- concentration at 1 h [12]: 53.7 ng/g
- half-life [13]: 1.58 h
- Kp at 4 h [14]: 0.32
- concentration at 4 h [15]: 20.2 ng/g
- inhibition (INH) (Rattus norvegicus): 24%
- Emax [4]: 110%
- concentration at 0.5 h [16]: 39.5 ng/g
- Kp at 1 h [17]: 0.31
- Kp at 0.5 h [18]: 0.22
- Emax [5]: 100%
- concentration at 1 h [19]: 174 ng/mL
- Ki [7]: 21 nM
- bioavailability [20]: 82.6%
- Cmax [21]: 200 ng/mL
- EC50 [8]: 140 nM

Structure (SMILES): O=C(C1CC1)N1CCNCC1
- Ki [6]: 6000 nM
- Ki [7]: 26000 nM

Structure (SMILES): O=C(C1CC=CC1)N1CC2CC(C1)N2
- Emax [1]: 93%
- EC50 [2]: 17000 nM
- EC50 [3]: 1900 nM
- Emax [4]: 95%
- Emax [5]: 99%
- Ki [6]: 51 nM
- Ki [7]: 1100 nM
- EC50 [8]: 6600 nM

Structure (SMILES): CC(C)C(=O)N1CC2CC(C1)N2
- Emax [1]: 86%
- EC50 [2]: 20000 nM
- EC50 [3]: 16000 nM
- Emax [4]: 71%
- Emax [5]: 45%
- Ki [6]: 130 nM
- Ki [7]: 580 nM
- EC50 [8]: 19000 nM

Structure (SMILES): O=C(C1CC1(F)F)N1CC2CC(C1)N2 (configuration not stated)
- Emax [1]: 94%
- EC50 [2]: 2300 nM
- EC50 [3]: 100 nM
- Emax [4]: 100%
- Emax [5]: 110%
- Ki [6]: 5.9 nM
- Ki [7]: 75 nM
- EC50 [8]: 1000 nM

Structure (SMILES): C[C@H]1C[C@H]1C(=O)N1CC2CC(C1)N2
- Emax [1]: 87%
- EC50 [2]: 5800 nM
- EC50 [3]: 2000 nM
- Emax [4]: 93%
- Emax [5]: 60%
- Ki [6]: 7 nM
- Ki [7]: 170 nM
- EC50 [8]: 2200 nM
